Our source for the inhibition values is patent US20220009920A1 (GB005, Inc., priority 2020, published 2022).

By inhibition is commonly meant the change of the read-out against control, counted positive when it falls.

Experiment in all cases: Large panel kinase profiling
Common to all, as to type: biochemical
What all share (conditions): 1 μM test article, 1 mM ATP

For experiment [1], the target named is T1, STK17A/DRAK1 (Homo sapiens, UniProt Q9UEE5).
T1 construct: AssayQuant Technologies, Inc. (contract assay)
T1 sequence (Q9UEE5 1-414): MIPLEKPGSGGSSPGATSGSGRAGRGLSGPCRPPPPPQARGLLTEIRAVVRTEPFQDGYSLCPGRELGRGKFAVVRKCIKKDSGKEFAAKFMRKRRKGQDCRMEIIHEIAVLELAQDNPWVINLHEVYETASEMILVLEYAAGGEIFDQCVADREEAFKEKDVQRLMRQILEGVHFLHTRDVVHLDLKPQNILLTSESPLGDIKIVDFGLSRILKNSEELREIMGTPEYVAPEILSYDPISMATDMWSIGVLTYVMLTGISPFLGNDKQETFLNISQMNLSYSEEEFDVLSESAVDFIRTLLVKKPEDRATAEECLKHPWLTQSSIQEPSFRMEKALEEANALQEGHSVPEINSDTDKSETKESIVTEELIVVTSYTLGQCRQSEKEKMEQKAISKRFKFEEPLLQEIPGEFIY
The essentials: (§1)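 With ATP fixed at 1 mM, each kinase was exposed to 1 μM compound in a PhosphoSens CSox-Sensor reaction. Sealed plates were incubated at 30° C. and read in kinetic mode.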

The target of experiment [2] is T2, IKBKE/IKKE (Homo sapiens, UniProt Q14164).
T2 construct: AssayQuant Technologies, Inc. (service provider)
T2 sequence (Q14164 1-716): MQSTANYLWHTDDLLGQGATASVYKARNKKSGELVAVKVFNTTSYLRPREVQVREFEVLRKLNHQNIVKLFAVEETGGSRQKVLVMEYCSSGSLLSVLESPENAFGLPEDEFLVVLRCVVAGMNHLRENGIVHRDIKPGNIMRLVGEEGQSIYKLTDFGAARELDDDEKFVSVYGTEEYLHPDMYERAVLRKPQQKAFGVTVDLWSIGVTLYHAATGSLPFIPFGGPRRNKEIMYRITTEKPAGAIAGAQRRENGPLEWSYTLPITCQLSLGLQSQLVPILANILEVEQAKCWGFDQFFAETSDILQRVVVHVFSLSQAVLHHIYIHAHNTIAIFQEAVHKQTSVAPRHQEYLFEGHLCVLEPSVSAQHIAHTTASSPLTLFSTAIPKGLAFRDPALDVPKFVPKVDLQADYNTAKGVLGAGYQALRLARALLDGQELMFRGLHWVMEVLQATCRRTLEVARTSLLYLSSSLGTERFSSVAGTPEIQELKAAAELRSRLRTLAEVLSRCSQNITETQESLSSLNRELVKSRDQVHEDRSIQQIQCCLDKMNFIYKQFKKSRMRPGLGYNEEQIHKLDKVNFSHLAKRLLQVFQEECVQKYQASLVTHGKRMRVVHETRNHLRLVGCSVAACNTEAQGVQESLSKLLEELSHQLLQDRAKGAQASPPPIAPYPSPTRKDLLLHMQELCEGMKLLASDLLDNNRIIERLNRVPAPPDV
In outline:
as §1

Experiment [3] has as its target T3, CDK2/A2 (Homo sapiens, UniProt P24941).
T3 construct: AssayQuant Technologies, Inc. (ran the panel)
In outline:
as §1

Experiment [4] has as its target PDGFRB (Homo sapiens, UniProt P09619). The essentials:
as §1

For experiment [5], the target named is PRKCB2/PKCB2 (Homo sapiens, UniProt P05771). The essentials: as §1
Experiment [6] concerns the target T4, CHEK2/CHK2 (Homo sapiens, UniProt O96017).
T4 construct: AssayQuant Technologies, Inc. (ran the panel)
The essentials: as §1

Experiment [7] has as its target T5, JAK2(JH1JH2) (Homo sapiens, UniProt O60674).
T5 construct: JAK2(JH1JH2)
The essentials:
as §1

The target of experiment [8] is T6, DDR1 (Homo sapiens, UniProt Q08345).
T6 construct: AssayQuant Technologies, Inc. (service laboratory)
In outline:
as §1

For experiment [9], the target named is T7, DYRK4 (Homo sapiens, UniProt Q9NR20).
T7 construct: AssayQuant Technologies, Inc. (service laboratory)
T7 sequence (Q9NR20 1-520): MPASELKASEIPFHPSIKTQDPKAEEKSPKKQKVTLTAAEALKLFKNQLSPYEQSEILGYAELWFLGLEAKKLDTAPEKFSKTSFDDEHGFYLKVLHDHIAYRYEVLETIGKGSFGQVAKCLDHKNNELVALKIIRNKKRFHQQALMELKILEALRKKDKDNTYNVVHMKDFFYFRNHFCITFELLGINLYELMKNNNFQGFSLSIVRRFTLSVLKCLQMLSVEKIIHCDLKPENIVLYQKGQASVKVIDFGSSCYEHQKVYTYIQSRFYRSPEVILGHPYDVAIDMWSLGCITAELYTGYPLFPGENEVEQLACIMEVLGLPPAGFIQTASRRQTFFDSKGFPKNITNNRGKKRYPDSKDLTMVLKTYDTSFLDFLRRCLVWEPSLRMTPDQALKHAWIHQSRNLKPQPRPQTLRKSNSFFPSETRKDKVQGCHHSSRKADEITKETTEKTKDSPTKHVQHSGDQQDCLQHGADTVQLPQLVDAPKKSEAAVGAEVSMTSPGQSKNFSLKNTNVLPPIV
The essentials: as §1

The target of experiment [10] is T8, TYK2(JH1JH2) (Homo sapiens, UniProt P29597).
T8 construct: TYK2(JH1JH2); AssayQuant Technologies, Inc. (contract laboratory that ran the panel)
The essentials:
as §1

The target in experiment [11] is T9, RPS6KA6/RSK4 (Homo sapiens, UniProt Q9UK32).
T9 construct: AssayQuant Technologies, Inc. (contract assay)
In outline:
as §1

T6 sequence (Q08345 19-913, species assumed): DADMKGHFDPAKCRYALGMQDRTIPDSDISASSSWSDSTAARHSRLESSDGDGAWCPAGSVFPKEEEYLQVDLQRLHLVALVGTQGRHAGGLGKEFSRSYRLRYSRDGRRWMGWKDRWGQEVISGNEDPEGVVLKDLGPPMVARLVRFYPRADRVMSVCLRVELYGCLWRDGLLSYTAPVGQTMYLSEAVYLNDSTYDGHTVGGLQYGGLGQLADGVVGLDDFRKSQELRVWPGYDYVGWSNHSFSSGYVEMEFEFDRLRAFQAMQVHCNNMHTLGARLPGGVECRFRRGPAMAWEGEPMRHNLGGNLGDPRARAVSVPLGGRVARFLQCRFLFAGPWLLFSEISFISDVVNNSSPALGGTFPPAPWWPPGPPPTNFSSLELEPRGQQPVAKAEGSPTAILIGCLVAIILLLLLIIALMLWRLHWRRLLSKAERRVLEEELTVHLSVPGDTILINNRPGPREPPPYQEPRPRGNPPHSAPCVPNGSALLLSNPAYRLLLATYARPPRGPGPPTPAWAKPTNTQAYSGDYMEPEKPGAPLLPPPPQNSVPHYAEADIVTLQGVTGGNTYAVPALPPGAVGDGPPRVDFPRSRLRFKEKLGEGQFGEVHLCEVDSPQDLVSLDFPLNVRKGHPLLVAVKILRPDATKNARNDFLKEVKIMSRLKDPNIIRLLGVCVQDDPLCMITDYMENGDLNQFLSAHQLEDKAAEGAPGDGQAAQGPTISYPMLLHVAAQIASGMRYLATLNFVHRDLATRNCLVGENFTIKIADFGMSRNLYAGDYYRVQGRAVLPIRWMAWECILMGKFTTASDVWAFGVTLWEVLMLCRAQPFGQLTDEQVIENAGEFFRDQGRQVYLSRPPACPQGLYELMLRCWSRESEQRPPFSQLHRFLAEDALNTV
T5 sequence (O60674 532-1132 limits assumed, species assumed): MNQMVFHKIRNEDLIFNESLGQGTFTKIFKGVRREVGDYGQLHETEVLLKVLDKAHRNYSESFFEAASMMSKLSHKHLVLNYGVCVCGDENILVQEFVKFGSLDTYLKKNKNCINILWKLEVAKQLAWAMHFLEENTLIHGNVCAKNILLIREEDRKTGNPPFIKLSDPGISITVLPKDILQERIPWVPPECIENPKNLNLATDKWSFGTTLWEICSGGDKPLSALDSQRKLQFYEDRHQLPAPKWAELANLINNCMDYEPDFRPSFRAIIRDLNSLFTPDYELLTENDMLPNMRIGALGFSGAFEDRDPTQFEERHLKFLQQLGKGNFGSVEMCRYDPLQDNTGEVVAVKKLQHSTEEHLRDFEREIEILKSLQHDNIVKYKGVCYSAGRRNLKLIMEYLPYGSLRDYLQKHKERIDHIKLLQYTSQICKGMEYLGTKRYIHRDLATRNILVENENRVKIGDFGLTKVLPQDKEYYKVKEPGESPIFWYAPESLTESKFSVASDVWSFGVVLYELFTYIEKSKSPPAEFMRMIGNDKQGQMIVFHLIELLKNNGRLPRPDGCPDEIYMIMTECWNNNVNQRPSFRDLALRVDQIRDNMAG
T8 sequence (P29597 575-1187 limits assumed, species assumed): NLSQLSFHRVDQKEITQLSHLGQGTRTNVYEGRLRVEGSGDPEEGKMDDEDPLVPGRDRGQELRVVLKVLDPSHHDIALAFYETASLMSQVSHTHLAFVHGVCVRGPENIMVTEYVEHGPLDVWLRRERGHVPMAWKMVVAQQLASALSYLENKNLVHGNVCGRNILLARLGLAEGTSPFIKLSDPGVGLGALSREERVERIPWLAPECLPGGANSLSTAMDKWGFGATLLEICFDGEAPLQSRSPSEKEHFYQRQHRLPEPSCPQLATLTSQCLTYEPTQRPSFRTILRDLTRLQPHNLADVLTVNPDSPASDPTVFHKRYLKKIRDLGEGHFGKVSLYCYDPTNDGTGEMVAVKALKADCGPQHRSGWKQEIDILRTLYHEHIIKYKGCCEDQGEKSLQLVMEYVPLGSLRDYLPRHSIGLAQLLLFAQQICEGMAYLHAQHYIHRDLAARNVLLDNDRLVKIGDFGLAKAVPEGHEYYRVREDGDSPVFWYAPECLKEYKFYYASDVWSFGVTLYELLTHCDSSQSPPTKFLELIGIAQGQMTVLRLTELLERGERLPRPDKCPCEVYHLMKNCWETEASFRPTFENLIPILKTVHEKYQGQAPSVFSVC
Sequence of PRKCB2/PKCB2 (P05771 1-673 isoform P05771-2): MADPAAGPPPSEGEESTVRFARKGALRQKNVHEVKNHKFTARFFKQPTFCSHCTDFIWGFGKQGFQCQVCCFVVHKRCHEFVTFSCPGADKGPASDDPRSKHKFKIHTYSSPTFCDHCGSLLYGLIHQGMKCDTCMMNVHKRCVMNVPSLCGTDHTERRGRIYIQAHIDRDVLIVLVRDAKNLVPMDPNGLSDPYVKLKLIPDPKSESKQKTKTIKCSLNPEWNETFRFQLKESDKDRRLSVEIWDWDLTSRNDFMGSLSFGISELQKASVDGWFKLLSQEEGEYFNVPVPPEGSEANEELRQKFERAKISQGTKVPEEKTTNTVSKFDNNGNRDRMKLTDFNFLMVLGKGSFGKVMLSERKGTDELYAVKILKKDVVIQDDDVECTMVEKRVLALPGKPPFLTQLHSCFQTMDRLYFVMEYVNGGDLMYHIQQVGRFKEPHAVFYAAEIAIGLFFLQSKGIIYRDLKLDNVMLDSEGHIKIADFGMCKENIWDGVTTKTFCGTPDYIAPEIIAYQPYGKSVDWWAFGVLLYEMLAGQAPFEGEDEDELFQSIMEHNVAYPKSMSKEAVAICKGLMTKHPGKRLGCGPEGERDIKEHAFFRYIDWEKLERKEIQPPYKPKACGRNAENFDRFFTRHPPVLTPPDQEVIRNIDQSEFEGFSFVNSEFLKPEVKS
T9 sequence (Q9UK32 whole entry): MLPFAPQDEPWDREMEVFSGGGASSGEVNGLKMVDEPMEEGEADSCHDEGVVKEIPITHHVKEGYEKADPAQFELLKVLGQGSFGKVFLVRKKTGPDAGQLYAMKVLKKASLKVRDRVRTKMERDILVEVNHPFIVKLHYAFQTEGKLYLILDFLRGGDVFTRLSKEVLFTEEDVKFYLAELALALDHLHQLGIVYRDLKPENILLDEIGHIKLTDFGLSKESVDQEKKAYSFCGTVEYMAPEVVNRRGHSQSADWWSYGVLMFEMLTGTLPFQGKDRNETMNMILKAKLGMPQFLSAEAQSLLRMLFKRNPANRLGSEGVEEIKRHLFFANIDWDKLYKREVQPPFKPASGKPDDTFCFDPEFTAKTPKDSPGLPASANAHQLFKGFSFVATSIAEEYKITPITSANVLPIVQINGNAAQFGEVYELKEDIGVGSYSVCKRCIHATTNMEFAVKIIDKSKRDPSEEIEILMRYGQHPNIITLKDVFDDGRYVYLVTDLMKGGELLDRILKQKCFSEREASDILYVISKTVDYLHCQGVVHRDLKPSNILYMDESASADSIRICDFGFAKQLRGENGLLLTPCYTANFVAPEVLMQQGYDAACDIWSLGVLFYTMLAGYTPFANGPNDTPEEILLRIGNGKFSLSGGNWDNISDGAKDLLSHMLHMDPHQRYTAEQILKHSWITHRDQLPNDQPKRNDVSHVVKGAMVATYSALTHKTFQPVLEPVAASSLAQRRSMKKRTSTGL
Sequence of PDGFRB (P09619 33-1106, species assumed): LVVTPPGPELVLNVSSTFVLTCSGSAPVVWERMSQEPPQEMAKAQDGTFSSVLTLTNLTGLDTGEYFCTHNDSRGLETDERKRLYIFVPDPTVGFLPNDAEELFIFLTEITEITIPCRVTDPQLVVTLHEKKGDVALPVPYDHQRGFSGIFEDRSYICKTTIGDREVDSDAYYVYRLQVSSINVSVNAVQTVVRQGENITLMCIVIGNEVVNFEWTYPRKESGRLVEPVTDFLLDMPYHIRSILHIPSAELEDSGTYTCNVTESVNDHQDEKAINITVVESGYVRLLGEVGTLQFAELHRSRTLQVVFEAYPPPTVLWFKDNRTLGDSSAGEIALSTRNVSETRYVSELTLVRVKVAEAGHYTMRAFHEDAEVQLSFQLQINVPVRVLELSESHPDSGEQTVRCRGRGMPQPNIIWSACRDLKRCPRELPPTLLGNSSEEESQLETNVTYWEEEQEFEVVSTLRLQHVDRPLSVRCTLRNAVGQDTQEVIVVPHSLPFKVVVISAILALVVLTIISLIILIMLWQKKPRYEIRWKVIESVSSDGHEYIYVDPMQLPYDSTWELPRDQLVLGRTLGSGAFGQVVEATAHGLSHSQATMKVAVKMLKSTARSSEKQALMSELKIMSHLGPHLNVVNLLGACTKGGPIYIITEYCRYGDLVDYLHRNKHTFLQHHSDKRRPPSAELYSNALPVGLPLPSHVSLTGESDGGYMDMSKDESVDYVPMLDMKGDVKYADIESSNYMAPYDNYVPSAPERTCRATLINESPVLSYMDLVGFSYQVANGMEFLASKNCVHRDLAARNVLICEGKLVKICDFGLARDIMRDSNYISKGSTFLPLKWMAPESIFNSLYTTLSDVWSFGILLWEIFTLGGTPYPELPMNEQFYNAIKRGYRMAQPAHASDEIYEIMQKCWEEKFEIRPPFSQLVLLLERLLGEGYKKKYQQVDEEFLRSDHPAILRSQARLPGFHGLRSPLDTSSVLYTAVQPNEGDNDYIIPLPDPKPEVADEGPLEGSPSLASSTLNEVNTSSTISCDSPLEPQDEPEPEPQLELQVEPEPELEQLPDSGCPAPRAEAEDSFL

Turning to `C=CC(=O)N1CCCC(c2c(F)cc(C(N)=O)c3[nH]c4c(c23)CCCCC4)C1` (single isomer, unassigned) [Compound 5-6], the inhibition at 1 µM was 22.4% in [1]; 3.4% in experiment [2]; -6.3% in experiment [3]; -52.9% in experiment [4]; -32.3% in experiment [5]; 0.6% in experiment [6]. For the same compound, the inhibition at 1 µM in experiment [7] was 1%; in [8] it was 1.4%; in experiment [9], 23.2%; in [10] it was 18.9%; in experiment [11], -5.8%.

Regarding `C=CC(=O)N1CCC[C@@H](c2c(F)cc(C(N)=O)c3[nH]c4c(c23)CC2(CC4)CC2)C1` [Compound 6-2, (S)-5-(1-acryloylpiperidin-3-yl)-6-fluoro-1,2,4,9-tetrahydrospiro[carbazole-3,1′-cyclopropane]-8-carboxamide], the inhibition at 1 µM was -33.9% in experiment [1]; -18% in experiment [2]; 5.6% in experiment [3]; 23.2% in experiment [4]; -9.4% in experiment [5]; -14.1% in [6]. Besides, the inhibition at 1 µM in [7] is -9.4%; in experiment [8], 24.5%; in experiment [9] it was 15.4%; in [10], -27.1%; in experiment [11], -14.8%.

As for `C=CC(=O)N1CCC[C@@H](c2c(F)cc(C(N)=O)c3[nH]c4c(c23)CCC4)C1` [Compound 10-2, (S)-8-(1-acryloylpiperidin-3-yl)-7-fluoro-1,2,3,4-tetrahydrocyclo-penta[b]indole-5-carboxamide], the inhibition at 1 µM was -28% in [1]; -12.8% in experiment [2]; 2.3% in [3]; 4.7% in experiment [4]; -28.2% in [5]; -9.2% in [6]. Also, the inhibition at 1 µM in experiment [7] was -9.8%; in [8], -41.1%; in experiment [9], -6.6%; in experiment [10], 28.6%; in [11], 0.3%.
